For data set [1], the system named is rat calvarial-derived osteoblasts. The settings on record: in vitro; cited from earlier work.
Data set [2] relates to peripheral serotonin. As to the kind of experiment: Effect of oral CBMIDA on peripheral serotonin production in mice (serum serotonin ELISA), Example 1. It is filed as in vivo. The note with it: for reduction of peripheral serotonin measured in serum: 4 week old mice. How it is done: The ability of selective TPH1 inhibitor CBMIDA to reduce peripheral serotonin measured in serum was tested. Either 250 or 500 mg/kg doses of CBMIDA were administered orally twice in 20 hours to 4 week old mice, 4-5 mice per group. As a control, some mice were untreated and some received 250 mg/kg pCPA orally. […] CBMIDA has been reported to be an EDTA analog that increases osteoid volume in beagle dogs and induces proliferation of rat calvarial-derived osteoblasts in vitro (Xie, et al., Bioorganic & Medicinal Chemistry Letters 15 (2005) 3267-3270, incorporated herein by reference in its entirety).
One month old C57Bl/6 inbred male mice, weighing 15-16 g were used in the experiments. Animals were housed under 12 h light/12 h dark conditions in a room with controlled temperature (22° C.) and humidity (60%). Mice had ad libitum access to food and water, and were used after a minimum of 4 days of acclimatization to the housing conditions. All experiments were conducted following Columbia University Guidelines for the Animal Use and Care of laboratory mice.
Before the experiments, animals were separated into individual cages one day prior to the experiment. Compounds were fed orally (gavage) to the mouse, calculated according to the weight of the mouse, twice a day at 1700 h and at 1100 h. […] This route created two potential barriers for the compound to reach the brain. […] Control animals received the same volume of vehicle. Blood was collected through heart puncture on isofluorane-anaesthesized animals and allowed to clot for 5 minutes on ice. The serum was separated, snap chilled in liquid nitrogen and frozen at −80° C. till analyzed. Brainstems from all the animals were collected and processed for brain serotonin measurement through HPLC.
(§1) The Serotonin ELISA kit obtained from the Fitzgerald company was used to measure derivatized serotonin from serum. Derivatization is part of the sample preparation. Serotonin present in the serum was first quantitatively acylated into N-Acylserotonin using the acylation reagent. The principle of the assay is based on competitive ELISA, wherein serotonin that is bound to the solid phase of the plate and the N-acylserotonin compete for the fixed number of antiserum binding sites. When the reaction is in equilibrium, free antigen and free antigen-antiserum complexes are removed by washing.
The antibody bound to the solid phase serotonin is then detected using antirabbit/peroxidase. The substrate TMB/Peroxidase reaction is read at 450 nm. The amount of antibody bound to the solid phase serotonin is inversely proportional to the concentration of serotonin in the sample.
Catechol-3,6-bis methyleneiminodiacetic acid (CBMIDA) (basic structure is an EDTA-like compound and the catechol ring is at the centre) synthesized at the Columbia University Chemistry division, and para-chlorophenylalanine (pCPA) obtained from Sigma Aldrich Corp. were used. Each compound was dissolved with twice molar solution of NaHCO3 in water and given to mouse orally at 250 and 500 mg/kg/dose.
For orientation: ELISA stands for enzyme-linked immunosorbent assay.

The subject of data set [3] is osteoid volume. The note with it: beagle dogs; cited from earlier work.
For data set [4], the system named is peripheral serotonin production. As to the kind of experiment: Pilot study of tryptophan hydroxylase inhibitors on peripheral serotonin production in ovariectomized mice, Example 12. The class given is in vivo. The note with it: for effect on serotonin levels: oral (gavage) twice a day, dose not given. Here is the method:
6-week old C57Bl/6 inbred female mice, weighing 12-14 g, were used in the experiments. Animals were housed under 12 h light/12 h dark conditions in a room with controlled temperature (22° C.) and humidity (60%). Mice had ad libitum access to food and water, and were used after a minimum of 4 days of acclimatization to the housing conditions. All experiments were conducted following Columbia University Guidelines for the Animal Use and Care of laboratory mice.
Animals were separated into different groups one day prior to the experiments. Mice were ovariectomized (OVX) under anaesthesia (Avertin). Compounds were fed orally (Gavage) twice a day at 1700 h and at 1100 h for the pilot study while for the long term study compounds were given at 1700 h once a day. […] This route creates two potential barriers for the compound to reach the brain. […] Control animals received the same volume of vehicle. Blood was collected through heart puncture on isofluorane-anaesthesized animals, allowed to clot for 5 minutes on ice and then serum was separated, snap chilled in liquid nitrogen and frozen at −80° C. till analyzed. Mice were observed daily for any physical or behavioral abnormality during the course of investigation.
• Group 1: Vehicle • Group 2: Compound 1 • Group 3: Compound 2 • Group 4: Compound 3 • Group 5: Compound 4 (LP-533401) Experiment II: Effect of Compounds 1 and 4 on Protection from OVX-Induced Bone Loss Protocol 1: Gavage Feeding of the Compounds Will be Started 1 Day after OVX for 6 Weeks • Group 1: Sham treatment • Group 2: OVX • Group 3: OVX+Compound 1 (250 mg/kg) • Group 4: OVX+Compound 1 (500 mg/kg) • Group 5: OVX+Compound 4 (250 mg/kg) Protocol 2: Gavage Feeding of the Compounds Will be Started 2 Weeks after OVX for 6 Weeks • Group 1: Sham treatment • Group 2: OVX • Group 3: OVX+Compound 1 (250 mg/kg) • Group 4: OVX+Compound 1 (500 mg/kg) • Group 5: OVX+Compound 4 (250 mg/kg) Protocol 3: Gavage Feeding of the Compounds Will be Started 4 Weeks after OVX for 6 Weeks • Group 1: Sham treatment • Group 2: OVX • Group 3: OVX+Compound 1 (250 mg/kg) • Group 4: OVX+Compound 1 (500 mg/kg) • […] Serotonin Measurement in Serum
as §1, with “acylated” for “acylated into N-Acylserotonin”, “reagent into N-Acylserotonin.” for “reagent.”, “washing. The antibody bound to the solid phase serotonin is then detected by anti-rabbit/peroxidase. The substrate TMB/Peroxidase reaction is read at 450 nm. The amount of antibody bound to the solid phase serotonin is inversely proportional to the concentration of serotonin in the sample.” for “washing.”
We used Catechol-3,6-bis methyleneiminodiacetic acid [(CBMIDA) Compound 1: basic structure is a EDTA-like compound and the catechol ring is at the center)] synthesized at the Columbia University Chemistry division and para-Chlorophenylalanine (pCPA) obtained from Sigma Aldrich Corp. for our experiments. Compounds were dissolved with twice molar solution of NaHCO3 in water and given to mice orally at 250 and 500 mg/kg/dose. Compounds 2 and 3 were dissolved in water.

The conditions of data set [5]: given orally, cited from earlier work.
Data set [6] has as its system Serotonin levels in the small intestine. The settings on record: mice, twice per day over 3-4 days, about 30-90 mg/kg; after six consecutive doses; cited from earlier work.
The test system of data set [7] is brain-derived serotonin. The note with it: mice, twice per day over 3-4 days, about 30-90 mg/kg; cited from earlier work.
Data set [8] concerns the target rb 5-HT1B receptors (Oryctolagus cuniculus, UniProt P49144). The note with it: cited from earlier work.
Data set [9] relates to primary osteoblasts. As to the kind of experiment: Real-time PCR of cyclin and osteoblast-specific gene expression in primary osteoblasts treated with serotonin. The class given is cell-based, mouse. The settings on record: serotonin 50 to 100 μM, 24 hr, versus vehicle, FIG. 8B. How it is done: To test whether serotonin regulates the expression of cyclins in osteoblasts, a real-time PCR analysis of cyclin expression in primary osteoblasts treated with serotonin or vehicle was performed. […] In contrast, expression of Runx2, Osteocalcin and Type I collagen was not modified (FIG. 8B).
Calvaria osteoblasts were extracted by triple collagenase/trypsine digestion from 4 day-old CD1 pups and differentiated with ascorbic acid as previously described (Ducy et al., 2000, Cell 100:197-207).
(§2) Osteoblasts were treated in serum-free medium with vehicle or Serotonin (50 to 100 μM, Sigma) for 24 hr. Total RNA were extracted with Trizol (Invitrogen). cDNA were generated using the ABI Reverse transcriptase system and random hexanucleotide primers. Real-time PCR was performed using superarray primers on a Stratagene real time PCR cycler and Actin expression was used as endogenous control. Chromatin immunoprecipitation assays (ChIP) were performed by standard procedures using primary osteoblasts. Microarray analysis was performed as described previously (Glass et al., 2005, Dev. Cell 8:751-764).
Background: Quantitative PCR measures a nucleic acid by following its amplification.

For data set [10], the system named is CREB. As to the kind of experiment: CREB phosphorylation (Western blot) and CREB binding to Cyclin D1 promoter (ChIP) in primary osteoblasts treated with serotonin. It is filed as cell-based, mouse. How it is done: Decreased expression of Cyclin D1 is a major feature of both Lrp5 deficiency and serotonin treatment of osteoblasts (FIGS. 1 and 8). One transcription factor that is known to modulate the expression of cyclin genes and is expressed in osteoblasts is CREB (Fu et al., 2005, Cell 122:803-815). Therefore, whether serotonin could decrease CREB activity in these cells was tested. […] Furthermore, a CREB binding site in the Cyclin D1 mouse promoter was identified and it was shown using ChIP assays that serotonin decreased binding of CREB to this promoter (FIG. 9B). These two observations raise the hypothesis that CREB could be mediating serotonin action on osteoblasts.
as §2
Osteoblasts were treated in serum-free medium with vehicle or Serotonin (50 to 100 μM, Sigma) for 24 hr. […]
Background: A western blot detects proteins with antibodies after separation by electrophoresis.

“And” between values parts separate entries of the source, which are not always exact repeats. Equal values may be shown once. Read-outs that look alike come from different tables or passages of the source.

rb 5-HT1B receptors, sequence (P49144 whole entry): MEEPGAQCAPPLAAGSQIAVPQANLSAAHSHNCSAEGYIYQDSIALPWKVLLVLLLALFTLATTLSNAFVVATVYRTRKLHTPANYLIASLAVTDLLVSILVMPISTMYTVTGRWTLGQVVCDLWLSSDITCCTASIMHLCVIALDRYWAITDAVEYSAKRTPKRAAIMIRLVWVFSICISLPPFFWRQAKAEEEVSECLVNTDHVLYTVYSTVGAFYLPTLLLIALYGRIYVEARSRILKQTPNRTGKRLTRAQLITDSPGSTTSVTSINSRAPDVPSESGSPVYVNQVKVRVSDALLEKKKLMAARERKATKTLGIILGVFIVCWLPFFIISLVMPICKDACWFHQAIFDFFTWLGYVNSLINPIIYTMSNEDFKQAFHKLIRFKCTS

Regarding `O=C(O)CN(CC(=O)O)Cc1ccc(CN(CC(=O)O)CC(=O)O)c(O)c1O` [CBMIDA, Catechol-3,6-bis methyleneiminodiacetic acid], the proliferation of osteoblasts result in [1] was “induces”. Further, the results for the “reduction of peripheral serotonin measured in serum” value in data set [2] (250 mg/kg orally twice in 20 hours) and in [2] (500 mg/kg orally twice in 20 hours) were approximately 45% and “about 80%”, respectively. Besides, the “decrease of serotonin serum levels” value in data set [2] (250 mg/kg, oral, compared with 500 mg/kg, FIG. 11) is reported as “lesser extent”; in [4] (250 mg/kg, oral, compared with 500 mg/kg), “lesser extent”. The “serotonin serum levels decreased to % below normal” value in [2] (500 mg/kg twice daily, oral, FIG. 11) is given as 80%; in data set [4] (500 mg/kg twice daily, oral, FIG. 15), 80%. For the same compound, in [2] (250 and 500 mg/kg versus control animals), the “dose response of serum serotonin reduction” value is on record as “dose response curve”. For the same compound, the “peripheral serotonin upon oral feeding” value in data set [2] (FIG. 11 legend) is on record as “reduces”. The osteoid volume result in data set [3] is listed as “increases”. Besides, the “dose response of serotonin levels” value in data set [4] (different doses compared to control animals, FIG. 15) was “dose response curve”. The “share of the oral amount transported into the circulation (blood)” value is 3-5% and 5-10% in [5]; 5-10% in [5] (listed as Compound 1).

Consider `NC(=O)CN(CC(=O)O)Cc1ccc(CN(CC(N)=O)CC(=O)O)c(O)c1O` [Compound 2], for which, in data set [4] (pilot study), the “effect on serotonin levels” value is on record as “minimal effect”.

Regarding `CN1CCc2cccc3c2[C@H]1Cc1cc(CN(CC(=O)O)CC(=O)O)c(O)c(O)c1-3` [Compound 3], the “effect on serotonin levels” value in data set [4] (pilot study) is given as “decreased the serotonin levels dramatically”. Besides, the “toxicity to the animals (looked very lethargic and sick)” value in [4] (oral, pilot study) is “toxic”.

As to `CCOC(=O)[C@@H](N)Cc1ccc(-c2cc(OC(c3ccc(-c4cccc(F)c4)cc3)C(F)(F)F)nc(N)n2)cc1` (stereo partly drawn) [LP-615819], the “Serotonin levels in the small intestine” value in [6] is listed as “significantly lowered”. In addition, the brain-derived serotonin result in [7] is “unchanged”.

As to `O=C(c1ccc(F)cc1)C1CCN(CCn2c(=O)[nH]c3ccccc3c2=O)CC1` [ketanserin], the behaviour as antagonist entry in data set [8] was “as silent, competitive”.

Turning to `CSc1ccc2c(c1)C(N1CCN(C)CC1)Cc1ccccc1S2` (stereo not drawn) [methiothepin], the behaviour as antagonist entry in data set [8] is “as silent, competitive”.

Consider `NCCc1c[nH]c2ccc(O)cc12` [serotonin, 5-hydroxytryptamine], for which, in [9], the “expression of Cyclin D1 and D2” value was “decreased”; the “expression of Runx2, Osteocalcin and Type I collagen” value was “not modified”. For the same compound, the CREB phosphorylation result in data set [10] (FIG. 9A) is reported as “significantly decreased”. Besides, in [10] (FIG. 9B), the “binding of CREB to the Cyclin D1 promoter (ChIP)” value is recorded as “decreased”.

Source of the values: patent US8759364B2, “Methods of treating bone mass diseases” (The Trustees of Columbia University in the City of New York, priority 2008, dated 2014).
